Activity calls are given as the source filed them. The calls are words filed in the database; no cut-off is given here.
Assays:
[1] = tested on: SK-BR-3; experiment: Antiproliferative activity against human SKBR3 cells after 72 hrs by Cell Titer 96 Aqueous One Solution cell proliferation assay; type: functional
[2] = tested on: NCI-H1975; experiment: Antiproliferative activity against human NCI-H1975 cells after 72 hrs by Cell Titer 96 Aqueous One Solution cell proliferation assay; type: functional; settings: NCI-H1975, 72 h
[3] = biological target: T1, Heat shock protein HSP 90-alpha (Homo sapiens, UniProt P07900); experiment: Inhibition of FITC-geldanamycin binding to N-terminal domain of recombinant full-length HSP90alpha (unknown origin) after 16 hrs by fluorescence polarization assay
[4] = biological target: T1, Heat shock protein HSP 90-alpha; experiment: Binding affinity to N-terminal domain of recombinant full-length HSP90alpha (unknown origin) by surface plasmon resonance assay
[5] = biological target: T2, Heat shock protein HSP90 (Homo sapiens) (UniProt P07900+P08238); experiment: Inhibition of HSP90 in human NCI-H1975 cells assessed as decrease in EGFR protein expression at 0.05 to 1 uM after 24 hrs by Western blot analysis; type: cell-based
[6] = biological target: T2, Heat shock protein HSP90 (Homo sapiens); experiment: Inhibition of HSP90 in human NCI-H1975 cells assessed as decrease in Her2 protein expression at 0.05 to 1 uM after 24 hrs by Western blot analysis; type: cell-based
[7] = biological target: T2, Heat shock protein HSP90 (Homo sapiens); experiment: Inhibition of HSP90 in human NCI-H1975 cells assessed as decrease in Met protein expression at 0.05 to 1 uM after 24 hrs by Western blot analysis; type: cell-based
[8] = biological target: T2, Heat shock protein HSP90 (Homo sapiens); experiment: Inhibition of HSP90 in human NCI-H1975 cells assessed as decrease in Akt protein expression at 0.05 to 1 uM after 24 hrs by Western blot analysis; type: cell-based
[9] = biological target: T2, Heat shock protein HSP90 (Homo sapiens); experiment: Inhibition of HSP90 in human NCI-H1975 cells assessed as decrease in c-Raf protein expression at 0.05 to 1 uM after 24 hrs by Western blot analysis; type: cell-based
[10] = biological target: T2, Heat shock protein HSP90 (Homo sapiens); experiment: Inhibition of HSP90 in human NCI-H1975 cells assessed as induction of HSP70 expression at 0.05 to 1 uM after 24 hrs by Western blot analysis; type: cell-based
[11] = biological target: T2, Heat shock protein HSP90 (Homo sapiens); experiment: Inhibition of HSP90 in human NCI-H1975 cells assessed as induction of HSP90 expression at 0.05 to 1 uM after 24 hrs by Western blot analysis; type: cell-based
[12] = tested on: NCI-H1975; experiment: Induction of apoptosis in human NCI-H1975 cells assessed as increase in cleaved PARP expression at 0.05 to 1 uM after 24 hrs by Western blot analysis; type: functional, cell-based
[13] = tested on: NCI-H1975; experiment: Induction of apoptosis in human NCI-H1975 cells assessed as increase in cleaved caspase-3 expression at 0.05 to 1 uM after 24 hrs by Western blot analysis; type: functional, cell-based
[14] = tested on: NCI-H1975; experiment: Induction of apoptosis in human NCI-H1975 cells assessed as increase in cleaved caspase-8 expression at 0.05 to 1 uM after 24 hrs by Western blot analysis; type: functional, cell-based
[15] = tested on: NCI-H1975; experiment: Induction of apoptosis in human NCI-H1975 cells assessed as increase in Bax expression levels at 0.05 to 1 uM after 24 by Western blot analysis; type: functional, cell-based
[16] = tested on: NCI-H1975; experiment: Induction of apoptosis in human NCI-H1975 cells assessed as increase in Bcl2 expression levels at 0.05 to 1 uM after 24 by Western blot analysis; type: functional, cell-based
[17] = biological target: Cytochrome P450 2C9 (Homo sapiens, UniProt P11712); experiment: Inhibition of CYP2C9 in human pooled human liver microsomes using tolbutamide as substrate assessed as tolbutamide 4-methylhydroxylation preincubated for 5 mins followed by NADPH addition measured after 15 mins by LC-MS/MS analysis; type: ADME
[18] = biological target: T3, Cytochrome P450 1A2 (Homo sapiens, UniProt P05177); experiment: Inhibition of CYP1A2 in human pooled human liver microsomes using phenacetin as substrate assessed as […] preincubated for 5 mins followed by NADPH addition measured after 15 mins by LC-MS/MS analysis; type: ADME
T3 sequence (P05177 whole entry): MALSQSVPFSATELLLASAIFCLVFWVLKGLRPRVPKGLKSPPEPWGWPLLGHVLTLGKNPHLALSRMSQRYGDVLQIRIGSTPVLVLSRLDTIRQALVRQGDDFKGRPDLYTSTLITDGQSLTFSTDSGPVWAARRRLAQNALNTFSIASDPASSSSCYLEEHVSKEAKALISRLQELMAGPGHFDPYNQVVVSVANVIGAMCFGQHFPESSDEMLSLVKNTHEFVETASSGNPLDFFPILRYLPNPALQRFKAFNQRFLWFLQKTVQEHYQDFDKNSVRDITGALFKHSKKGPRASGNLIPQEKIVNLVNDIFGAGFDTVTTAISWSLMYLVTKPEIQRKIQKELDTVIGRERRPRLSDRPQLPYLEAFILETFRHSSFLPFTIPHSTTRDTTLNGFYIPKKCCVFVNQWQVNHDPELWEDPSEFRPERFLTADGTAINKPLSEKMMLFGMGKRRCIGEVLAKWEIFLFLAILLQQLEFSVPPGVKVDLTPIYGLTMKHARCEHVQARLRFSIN

[19] = biological target: Cytochrome P450 2C19 (Homo sapiens, UniProt P33261); experiment: Inhibition of CYP2C19 in human pooled human liver microsomes using omeprazole as substrate assessed as omepraozle hydroxylation preincubated for 5 mins followed by NADPH addition measured after 15 mins by LC-MS/MS analysis; type: ADME
[20] = biological target: Cytochrome P450 2D6 (Homo sapiens, UniProt P10635); experiment: Inhibition of CYP2D6 in human pooled human liver microsomes using dextromethorphan as substrate assessed as dextromethorphan O-demethylation preincubated for 5 mins followed by NADPH addition measured after 15 mins by LC-MS/MS analysis; type: ADME
[21] = biological target: CYP3A (Homo sapiens, UniProt P08684+P20815+P24462+Q9HB55); experiment: Inhibition of CYP3A in human pooled human liver microsomes using midazolam as substrate assessed as midazolam 1'-hydroxylation preincubated for 5 mins followed by NADPH addition measured after 15 mins by LC-MS/MS analysis; type: ADME; settings: probe midazolam
[22] = tested on: Mus musculus; experiment: Toxicity in NOD-scid IL2Rgamma null mouse xenografted with human NCI-H1975 cells assessed as change in body weight at 25 to 50 mg/kg, ip dosed daily for 5 days per week followed by 2 days rest for 3 weeks and measured after 21 days post dose; type: organism-based; settings: in vivo, 504 h
[23] = tested on: NCI-H1975; experiment: Antitumor activity against human NCI-H1975 cells xenografted in NOD-scid IL2Rgamma null mouse assessed as delay in tumor growth at 25 to 50 mg/kg, ip dosed daily for 5 days per week followed by 2 days rest for 3 weeks and measured up to 21 days post dose; type: functional, organism-based
[24] = tested on: Mus musculus; experiment: (§1) In vivo inhibition of HSP90 in NOD-scid IL2Rgamma null mouse tumor xenografted with human NCI-H1975 cells assessed as decrease in EGFR protein expression at 25 to 50 mg/kg, ip dosed daily for 5 days per week followed by 2 days rest for 3 weeks and measured after 21 days post dose by immunoblot analysis; type: functional, organism-based
[25] = tested on: Mus musculus; experiment: as §1, with “Met” for “EGFR”; type: functional, organism-based
[26] = tested on: Mus musculus; experiment: as §1, with “Akt” for “EGFR”; type: functional, organism-based
[27] = tested on: Mus musculus; experiment: as §1, with “haematoxylin and eosin staining-based immunohistochemical” for “immunoblot”; type: functional, organism-based
[28] = tested on: Mus musculus; experiment: as §1, with “Met” for “EGFR”, “haematoxylin and eosin staining-based immunohistochemical” for “immunoblot”; type: functional, organism-based
[29] = tested on: Mus musculus; experiment: as §1, with “Akt” for “EGFR”, “haematoxylin and eosin staining-based immunohistochemical” for “immunoblot”; type: functional, organism-based
[30] = tested on: NCI-H1975; experiment: Effect on beta-actin protein levels in human NCI-H1975 cells at 0.05 to 1 uM after 24 hrs by Western blot analysis; type: ADME, cell-based; settings: nci-h1975, 24 h
[31] = tested on: Mus musculus; experiment: Toxicity in NOD-scid IL2Rgamma null mouse xenografted with human NCI-H1975 cells assessed as induction of abnormal behaviours at 25 to 50 mg/kg, ip measured after 21 days; type: organism-based; settings: in vivo, 504 h

Cytochrome P450 2C19, sequence (P33261 whole entry): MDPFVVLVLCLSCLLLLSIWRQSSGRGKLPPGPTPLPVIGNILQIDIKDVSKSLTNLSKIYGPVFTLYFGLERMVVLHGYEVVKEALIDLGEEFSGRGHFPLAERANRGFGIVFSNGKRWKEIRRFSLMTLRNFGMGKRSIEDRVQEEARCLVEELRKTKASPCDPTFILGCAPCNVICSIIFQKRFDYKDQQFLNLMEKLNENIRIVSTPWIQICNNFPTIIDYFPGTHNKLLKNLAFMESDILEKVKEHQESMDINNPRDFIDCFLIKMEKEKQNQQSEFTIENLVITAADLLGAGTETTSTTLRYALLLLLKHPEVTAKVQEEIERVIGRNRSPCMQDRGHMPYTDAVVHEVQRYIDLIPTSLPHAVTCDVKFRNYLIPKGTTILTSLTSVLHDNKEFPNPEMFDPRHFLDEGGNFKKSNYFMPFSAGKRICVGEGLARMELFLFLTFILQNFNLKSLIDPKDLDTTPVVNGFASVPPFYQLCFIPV
Cytochrome P450 2C9, sequence (P11712 whole entry): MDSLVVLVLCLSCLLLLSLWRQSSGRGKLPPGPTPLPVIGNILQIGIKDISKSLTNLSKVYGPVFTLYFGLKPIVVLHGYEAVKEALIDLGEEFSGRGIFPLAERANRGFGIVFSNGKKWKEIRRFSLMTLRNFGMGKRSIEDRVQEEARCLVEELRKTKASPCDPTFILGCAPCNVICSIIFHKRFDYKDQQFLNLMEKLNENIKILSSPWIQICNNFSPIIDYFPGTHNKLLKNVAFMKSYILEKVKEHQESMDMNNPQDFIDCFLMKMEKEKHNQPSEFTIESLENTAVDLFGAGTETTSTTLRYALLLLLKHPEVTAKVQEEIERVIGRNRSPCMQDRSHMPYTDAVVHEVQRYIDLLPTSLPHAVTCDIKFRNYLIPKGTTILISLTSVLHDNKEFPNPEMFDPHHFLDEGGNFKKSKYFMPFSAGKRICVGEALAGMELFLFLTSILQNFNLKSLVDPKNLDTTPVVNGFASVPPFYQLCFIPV
Cytochrome P450 2D6, sequence (P10635 whole entry): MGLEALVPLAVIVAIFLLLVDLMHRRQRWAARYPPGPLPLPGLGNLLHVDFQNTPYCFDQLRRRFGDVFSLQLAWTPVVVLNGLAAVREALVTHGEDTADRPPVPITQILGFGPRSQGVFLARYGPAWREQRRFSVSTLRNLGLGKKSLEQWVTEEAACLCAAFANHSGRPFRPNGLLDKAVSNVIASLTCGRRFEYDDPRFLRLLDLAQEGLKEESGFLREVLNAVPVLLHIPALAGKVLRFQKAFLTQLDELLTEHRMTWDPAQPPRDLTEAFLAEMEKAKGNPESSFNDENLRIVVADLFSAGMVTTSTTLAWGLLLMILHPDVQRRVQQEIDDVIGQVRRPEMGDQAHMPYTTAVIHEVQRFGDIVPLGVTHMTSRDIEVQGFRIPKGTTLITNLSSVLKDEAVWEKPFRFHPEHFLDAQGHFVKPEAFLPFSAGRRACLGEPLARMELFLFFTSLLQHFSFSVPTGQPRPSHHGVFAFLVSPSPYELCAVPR

Work on COc1ccc(CN(C)C(=O)c2cc(Cl)c(O)cc2O)cc1 yielded a GI50 ([1]; SK-BR-3, 72 h) of 7.2 µM and a GI50 [2] of 16.7 µM.
In the case of CNC(=O)c1ccc(CN(C)C(=O)c2cc(Cl)c(O)cc2O)cc1, the IC50 [3] is reported as 0.496 µM and the GI50 [2] is reported as 34.8 µM.
Compound CNC(=O)c1ccc(CN(C)C(=O)c2cc(C(C)C)c(O)cc2O)cc1 has an IC50 [3] of 0.0114 µM and a GI50 [2] of 0.86 µM.
In the case of CN(Cc1ccc2c(c1)OCO2)C(=O)c1cc(Cl)c(O)cc1O, the GI50 ([1]; SK-BR-3, 72 h) is reported as 41.8 µM and the GI50 [2] is reported as 103 µM.
Compound COc1cc(CN(C)C(=O)c2cc(Cl)c(O)cc2O)cc(OC)c1OC has an IC50 [3] of over 1 µM, a GI50 ([1]; SK-BR-3, 72 h) of 30.1 µM and a GI50 [2] of 73.1 µM.
COc1cc(CN(C)C(=O)c2cc(Cl)c(O)cc2O)c(Cl)c(OC)c1OC was tested, and the GI50 ([1]; SK-BR-3, 72 h) was 2.4 µM and the GI50 [2] was 33.8 µM.
With CCCNC(=O)c1ccc(CN(C)C(=O)c2cc(C(C)C)c(O)cc2O)cc1 the IC50 [3] was 0.0053 µM, the GI50 [2] was 0.42 µM and the Kd [4] was 0.00308 µM. The inhibition [5] was “Active”, the inhibition [6] was “Active” and the inhibition [7] was “Active”. For the same compound, the inhibition [8] was “Active”, the inhibition [9] was “Active” and the inhibition [10] was “Active”. For the same compound, the inhibition [11] was “Active”, the Activity [12] was “Active” and the Activity [13] was “Active”. For the same compound, the Activity [14] was “Active”, the Activity [15] was “inactive” and the Activity [16] was “inactive”. For the same compound, the IC50 [17] was 5.3 µM, the IC50 [18] was 34.1 µM and the IC50 [19] was 14.6 µM. For the same compound, the IC50 [20] was 23 µM, the IC50 at 15 min [21] was 25.9 µM and the Activity [22] was “Non-Toxic”. For the same compound, the Activity [23] was “Active”, the inhibition [24] was “Active” and the inhibition [25] was “Active”. The inhibition [26] was “Active”, the inhibition [27] was “Active” and the inhibition [28] was “Active”. For the same compound, the inhibition [29] was “Active”, the Activity [30] was “Non-Toxic” and the Activity [31] was “Non-Toxic”.
For Cc1ccc(CN(C)C(=O)c2cc(Cl)c(O)cc2O)cc1, the GI50 ([1]; SK-BR-3, 72 h) was 7.2 µM and the GI50 [2] was 34.3 µM.
Compound Cc1ccccc1CN(C)C(=O)c1cc(Cl)c(O)cc1O has a GI50 ([1]; SK-BR-3, 72 h) of 4.2 µM and a GI50 [2] of 47.5 µM.
Compound CCNC(=O)c1ccc(CN(C)C(=O)c2cc(Cl)c(O)cc2O)cc1 has a GI50 [2] of 21.7 µM.
Work on CN(Cc1ccccc1)C(=O)c1cc(Cl)c(O)cc1O yielded a GI50 ([1]; SK-BR-3, 72 h) of 18.3 µM and a GI50 [2] of 35.5 µM.
O=C(NCc1ccccc1)c1cc(Cl)c(O)cc1O was tested, and the GI50 [1] was “inactive” and the GI50 [2] was 86.2 µM.
COc1ccc(CN(C)C(=O)c2cc(Cl)c(O)cc2O)cc1OC showed a GI50 ([1]; SK-BR-3, 72 h) of 7.7 µM and a GI50 [2] of 33.4 µM.
With COC1=C2C[C@@H](C)C[C@H](OC)[C@H](O)[C@@H](C)/C=C(\C)[C@H](OC(N)=O)[C@@H](OC)/C=C\C=C(/C)C(=O)NC(=CC1=O)C2=O [GELDANAMYCIN] the GI50 [1] was “inactive” and the GI50 [2] was 0.56 µM.
CCCNC(=O)c1ccc(CN(C)C(=O)c2cc(Cl)c(O)cc2O)cc1 gave a GI50 [2] of 20.8 µM.
CCNC(=O)c1ccc(CN(C)C(=O)c2cc(C(C)C)c(O)cc2O)cc1 showed a GI50 [2] of 0.46 µM.
Cc1cccc(CN(C)C(=O)c2cc(Cl)c(O)cc2O)c1 was tested, and the GI50 ([1]; SK-BR-3, 72 h) was 11.3 µM and the GI50 [2] was 49.3 µM.
COc1cc(CN(C)C(=O)c2cc(Cl)c(O)cc2O)c(Br)c(OC)c1OC showed a GI50 ([1]; SK-BR-3, 72 h) of 7.7 µM and a GI50 [2] of 34.3 µM.

Reference: ChEMBL document CHEMBL4251579, “Design, synthesis, and biological evaluation of a series of resorcinol-based N-benzyl benzamide derivatives as potent Hsp90 inhibitors” (Eur J Med Chem, 2018)
